Data taken from US8859583B2, “Bicyclic heterocyclic compounds as protein tyrosine kinase inhibitors” (Astex Therapeutics Limited, priority 2007, dated 2014).
pIC50: −log10 of the molar value. Where a name gives a salt, the structure may show the parent alone.

What was measured:
[1] = system: Ba/F3-TEL-FGFR3 cell line; experiment: Ba/F3-TEL-FGFR3 cell proliferation assay; type: cell-based; conditions: 72 hours, Alamar Blue; read-out: IC50 against Ba/F3-TEL-FGFR3 cell line
Procedure: Ba/F3-TEL-FGFR3 & Ba/F3 (WT) Cell Proliferation Assays
Stably transfected Ba/F3-TEL-FGFR3 cells were plated out into black 96-well tissue culture plates with clear bottoms in RPMI medium containing 10% FBS and 0.25 mg/ml G418 at a density of 5×10^3 cells/well (200 μl per well). The parental wild-type Ba/F3 cells (DSMZ no.: ACC 300) were plated out into black 96-well tissue culture plates with clear bottoms in RPMI medium containing 10% FBS and 2 ng/ml mouse IL-3 (R&D Systems) at a density of 2.5×10^3 cells/well (200 μl per well). Plates were placed in an incubator overnight before adding the compounds the following day. Dilutions of compounds were made in DMSO starting at 10 mM and were diluted into the wells to give a final DMSO concentration of 0.1% in assay. Compounds were left on the cells for 72 hours before the plates were removed from the incubator and 20 μl of Alamar Blue™ (Biosource) was added to each well. Plates were placed in the incubator for 4-6 hours before reading plates at 535 nm (excitation)/590 nm (emission) on a Fusion plate reader (Packard).
In particular, compounds of the invention were tested against the Ba/F3-TEL-FGFR3 cell line.

[2] = system: LP-1 cell line (DSMZ no.: ACC 41) derived from human multiple myeloma; experiment: Cell-based pERK ELISA in LP-1 cells; conditions: LP-1, FGF-1/Heparin stimulated, for the 1 μM bound: or at least 50% inhibition at a concentration of 1 μM
Procedure: Enzyme buffer A: 8 mM MOPS, pH 7.0, 0.2 mM EDTA, 10 mM MgAcetate Enzyme buffer B: 8 mM MOPS, pH 7.0, 0.2 mM EDTA, 2.5 mM MnCl2, 10 mM MgAcetate Enzyme buffer C: 8 mM Mops, pH 7.0, 0.2 mM EDTA, 10 mM MnCl2, 10 mM MgAcetate. Cell-Based pERK ELISA Method
LP-1 or JIM-1 multiple myeloma cells were seeded in 96 well plates at 1×10^6 cells/ml in 200 ul per well in serum free media. HUVEC cells were seeded at 2.5×10^5 cells/ml and allowed to recover for 24 h prior to transfer to serum free media. Cells were incubated for 16 h at 37° C. prior to the addition of a test compound for 30 minutes. Test compounds were administered at a 0.1% final DMSO concentration. Following this 30 minute incubation a FGF-1/Heparin (FGF-1 at 100 ng/ml final and Heparin at 100 ug/ml) mixture or VEGF^165 (100 ug/ml) was added to each of the wells for a further 5 minutes. The media was removed and 50 ul ERK ELISA lysis buffer (R and D Systems DuoSet ELISA for pERK and Total ERK #DYC-1940E, DYC-1018E) added. ELISA plates and standards were prepared according to the standard DuoSet protocols and the relative amounts of pERK to total ERK in each sample calculated according to the standard curve.
In particular, compounds of the invention were tested against the LP-1 cell line (DSMZ no.: ACC 41) derived from human multiple myeloma.

CN(C)C(=O)c1ccn2c(-c3cccc(NC(=O)NCC(F)(F)F)c3)cnc2c1 [Example 1, 3-[3-[3-(2,2,2-Trifluoroethyl)ureido]-phenyl}imidazo[1,2-a]pyridine-7-carboxylic acid dimethylamide Hydrochloride]
pIC50 [1]: > 4.70

O=C(NCC(F)(F)F)Nc1cccc(-c2cnc3cc(C(=O)NCCCc4cnc[nH]4)ccn23)c1 [Example 19, 3-{3-[2,2,2-Trifluoro-ethyl)-ureido]-imidazo[1,2-a]pyridine-7-[3-(1H-imidazol-4-yl)]-propanamide]
melting point: 170 °C

Cn1cncc1CNC(=O)c1ccn2c(-c3cccc(NC(=O)NCC(F)(F)F)c3)cnc2c1 [Example 20, 3-{3-[2,2,2-Trifluoro-ethyl)-ureido]-imidazo[1,2-a]pyridine-7-[5-(1-N-methyl-imidazole)]-methylamide]
melting point: > 260 °C

O=C(NCC(F)(F)F)Nc1cccc(-c2cnc3cc(C(=O)N4CCC(O)C4)ccn23)c1 (stereo not shown) [Example 7, 1-{3-[7-(3-Hydroxy-pyrrolidine-1-carbonyl)-imidazo[1,2-a]pyridin-3-yl]-phenyl}-3-(2,2,2-trifluoro-ethyl)-urea]
pIC50 [2]: > 4.70

Cn1cncc1NC(=O)c1ccn2c(-c3cccc(NC(=O)NCC(F)(F)F)c3)cnc2c1 [Example 18, 3-{3-[2,2,2-Trifluoro-ethyl)-ureido]-imidazo[1,2-a]pyridine-7-[5-(1-N-methyl-imidazole)]-amide]
melting point: 260 °C

CNC(=O)c1ccn2c(-c3cccc(NC(=O)NCC(F)(F)F)c3)cnc2c1 [Example 2, 3-[3-[3-(2,2,2-Trifluoroethyl)ureido]-phenyl}imidazo[1,2-a]pyridine-7-carboxylic acid methylamide]
pIC50 [2]: > 4.70

CC(CO)NC(=O)c1ccn2c(-c3cccc(NC(=O)NCC(F)(F)F)c3)cnc2c1 (stereo not shown) [Example 17, 3-{3-[3-(2,2,2-Trifluoro-ethyl)-ureido]-phenyl}-imidazo[1,2-a]pyridine-7-carboxylic acid (2-hydroxy-1-methyl-ethyl)-amide]
pIC50 [2]: > 4.70
